Assay results published in patent US20040048283A1, “Novel method for screening bacterial transcription modulators” (priority 2000, published 2004).
Entries after “also recorded” stand apart in the source; their conditions may differ.

Columns and labels:
S epidermidis = assay: inhibition of growth in solid medium (inhibition diameter); type: cell-based
Method: (§1) A preculture of the strains E. coli K12, S. aureus and S. epidermis in Mueller Hinton Broth medium (Mueller and Hinton, 1941) is carried out at 37° C., until an optical density of 0.1 at 650 nm is obtained. 100 μl of the preculture is added to 10 ml of the medium: 0.1% agarose, 10 mM sodium phosphate pH 7.4; 0.3 mg/ml trypcase-soy; 100 mM NaCl.
(§2) The mixture is poured into a […] Petri dish. Wells are made in the gelose and 5 μl of the solutions to be tested, containing the screened products, are placed in each well. The dishes are left at ambient temperature for 2 hours, then 10 ml of the medium (1% agarose; 10 mM sodium phosphate—pH 7.4-6% trypcase-soy) are poured into the Petri dish forming an overlay. After solidification, the dishes are incubated overnight at 37° C.
(§3) The antibacterial activity is evaluated by measuring the diameter of the bacterial growth inhibition of the zone at the centre of which the product was placed.

S aureus = assay: as above; type: cell-based; conditions: for diameter of inhibition, S aureus: solid medium
Method: as §1, §2, §3

E. coli K12 = assay: as above; type: cell-based; conditions: for diameter of inhibition, K12: solid medium
Method: as §1, §2, §3

[1] = biological target: T1, bond between the core enzyme of the RNA polymerase and the protein σ^70 (Escherichia coli, UniProt P0A7Z4+P0A8T7+P0A8V2); assay: sigma70-RNA polymerase bond test (ELISA-type complexation test); type: binding, E. coli
T1 construct: made in house
Method: Thus, the different compounds tested are incubated in the presence of the core enzyme in a microassay dish on which the protein σ^70 is adsorbed, each well of the plate containing 1 μM of σ^70 during the adsorption phase.
The sigma70 proteins and the RNA polymerase of E. coli are expressed and purified under standard conditions (Burgess et al., Biochemistry, 1975, October 21; 14(21): 4634-8; Burgess R., Methods Enzymol 1996; 273: 145-9). The sigma70 protein is stored at −80° C. in (20 mM tris HCl pH 8; 5 M guanidine chloride; 10 mM β-mercaptoethanol; 50% glycerol) at a concentration of 100 μM. The core RNA polymerase is stored at −80° C. in (20 mM tris HCl pH 8, 100 mM KCl, 10 mM β-mercaptoethanol, 50% glycerol) at a concentration of 1 μM. The antipolymerase monoclonal antibody was obtained and purified by standard techniques (Short Protocols in Molecular Biology 2nd edition, John Wiley & Its) then chemically coupled to activated peroxidase (Boehringer Mannheim Biochemica ref. 1428861) according to the supplier's recommendations.
The test is based on the adsorption of sigma70 on an ELISA plate for 12 hours at 4° C. (6 pmoles of protein diluted in 100 μl of PBS per well, on Nunc-immuno plates, Maxisorp.). The protein dilutions and the buffers were optimized in order to reduce the non-specific bond of the RNA polymerase. After washing the plate with PBS 0.1% tween20, the plate is saturated with 200 μl of PBS 0.1% tween20, 1% BSA then incubated for 1 hour at ambient temperature with the RNA polymerase of E. coli (0.25 pmole of core RNA polymerase in 100 μl of PBS 0.1% tween 20, 1% BSA, 10 mM MgCl2) in the presence or in the absence of an optional inhibitor. […] The sigma70-RNA polymerase antibody complex is detected with a substrate of peroxidase, O-phenylenediamine, or another appropriate medium. […]
After three washings with 0.1% PBS-T (v/v), the peroxidase substrate is added (OPD, Biorad). The reaction takes place for 2 to 3 minutes in darkness then an absorbance measurement is carried out at 490 nm, after stopping the reaction with 50 μl of 4N H2SO4. […]

E. coli TG1 cells = assay: inhibition of growth in microassay dish; type: cell-based; conditions: FIG. 4; optical density at 650 nm after 12 hours at 37° C.
Method: FIG. 4 corresponds to the inhibition of the growth of E. coli TG1 cells by the abovementioned compound 5,988,031. This figure represents the optical density measured at 650 nm (y-axis) with reference to the concentration of the compound 5,988,031 in μg/ml (x-axis).
The E. coli TG1 cells, diluted according to the protocol described hereafter in the experimental part, are incubated with increasing concentrations of the compound 5,988,031. The growth of the bacteria is measured at 650 nm after incubation for 12 hours at 37° C. under stirring in a microassay dish.
The various compounds isolated are tested for their TG1 E. coli bacteria growth-inhibiting properties. Cells in stationary phase are diluted to {fraction (1/10,000)} in LB medium (tryptone 10 g; yeast extract 5 g; NaCl 5 g) and are transfected in a microassay dish (200 μl/well). The molecules are added to 10% DMSO, at a final concentration of 100 mg/ml. […] After incubation overnight at 37° C. under stirring, the optical density of each well at 650 nm is measured.

[2] = biological target: T2, bond between the RNA polymerase and the protein NusA (Escherichia coli, UniProt P0A7Z4+P0A8T7+P0A8V2); assay: NusA-RNA polymerase bond test (ELISA-type complexation test); type: binding, E. coli
T2 construct: polyhistidine (C); made in house; host or cells: NusA: BL21 lambda DE3 E. coli cells (printed 'BL211amdaDE3'), pet21-type vector
Method: More precisely, the different compounds tested (from the family of 5,988,031) are incubated in the presence of core enzyme in a microassay dish on which the protein NusA is adsorbed at a concentration equal to 20 μg/ml.
The gene coding for the protein NusA and comprising a C-terminal polyhistidine tag was cloned in a pet21-type vector. After transfection in BL211amdaDE3 cells, the cells are cultured in LB medium at 37° C. under vigorous stirring. The production of protein is induced by the addition of 1 mM IPTG. After 3 hours' culture, the cells are recovered by centrifugation and lysed according to (Burgess et al., Biochemistry, 1975 October 21; 14(21): 4634-8). After centrifugation, the supernatant is passed over an Ni NTA agarose column (Quiagen) according to the supplier's recommendations. The protein NusA is stored at −80° C. in (20 mM tris HCl pH 8; 5 M guanidine chloride; 10 mM β-mercaptoethanol; 50% glycerol) at a concentration of 100 μM.
The test is based on the adsorption of NusA on an ELISA plate for 12 hours at 4° C. (6 pmoles of protein diluted in 100 μl of PBS per well on Nunc-immuno plates, Maxisorp.). The dilutions of protein and the buffers were optimized in order to reduce the non-specific bond of the RNA polymerase. […] The sigma70-RNA polymerase-antibody complex is detected with a substrate of peroxidase, O-phenylenediamine, or another appropriate medium. […]

[3] = biological target: assembly of the α, β and β′ subunits (Escherichia coli, UniProt P0A7Z4+P0A8T7+P0A8V2); assay: specificity: assembly of RNA polymerase subunits; type: binding, E. coli
M. Luteus = assay: antibiotic activity on other strains tested; type: cell-based; conditions: concentration not given
[4] = biological target: bond between an antibody, for example 11D11, and the RNA polymerase (Escherichia coli, UniProt P0A7Z4+P0A8T7+P0A8V2); assay: specificity: antibody-RNA polymerase bond; type: binding, E. coli
[5] = other strains tested, concentration not given

T1 sequence (P0A8T7 whole entry): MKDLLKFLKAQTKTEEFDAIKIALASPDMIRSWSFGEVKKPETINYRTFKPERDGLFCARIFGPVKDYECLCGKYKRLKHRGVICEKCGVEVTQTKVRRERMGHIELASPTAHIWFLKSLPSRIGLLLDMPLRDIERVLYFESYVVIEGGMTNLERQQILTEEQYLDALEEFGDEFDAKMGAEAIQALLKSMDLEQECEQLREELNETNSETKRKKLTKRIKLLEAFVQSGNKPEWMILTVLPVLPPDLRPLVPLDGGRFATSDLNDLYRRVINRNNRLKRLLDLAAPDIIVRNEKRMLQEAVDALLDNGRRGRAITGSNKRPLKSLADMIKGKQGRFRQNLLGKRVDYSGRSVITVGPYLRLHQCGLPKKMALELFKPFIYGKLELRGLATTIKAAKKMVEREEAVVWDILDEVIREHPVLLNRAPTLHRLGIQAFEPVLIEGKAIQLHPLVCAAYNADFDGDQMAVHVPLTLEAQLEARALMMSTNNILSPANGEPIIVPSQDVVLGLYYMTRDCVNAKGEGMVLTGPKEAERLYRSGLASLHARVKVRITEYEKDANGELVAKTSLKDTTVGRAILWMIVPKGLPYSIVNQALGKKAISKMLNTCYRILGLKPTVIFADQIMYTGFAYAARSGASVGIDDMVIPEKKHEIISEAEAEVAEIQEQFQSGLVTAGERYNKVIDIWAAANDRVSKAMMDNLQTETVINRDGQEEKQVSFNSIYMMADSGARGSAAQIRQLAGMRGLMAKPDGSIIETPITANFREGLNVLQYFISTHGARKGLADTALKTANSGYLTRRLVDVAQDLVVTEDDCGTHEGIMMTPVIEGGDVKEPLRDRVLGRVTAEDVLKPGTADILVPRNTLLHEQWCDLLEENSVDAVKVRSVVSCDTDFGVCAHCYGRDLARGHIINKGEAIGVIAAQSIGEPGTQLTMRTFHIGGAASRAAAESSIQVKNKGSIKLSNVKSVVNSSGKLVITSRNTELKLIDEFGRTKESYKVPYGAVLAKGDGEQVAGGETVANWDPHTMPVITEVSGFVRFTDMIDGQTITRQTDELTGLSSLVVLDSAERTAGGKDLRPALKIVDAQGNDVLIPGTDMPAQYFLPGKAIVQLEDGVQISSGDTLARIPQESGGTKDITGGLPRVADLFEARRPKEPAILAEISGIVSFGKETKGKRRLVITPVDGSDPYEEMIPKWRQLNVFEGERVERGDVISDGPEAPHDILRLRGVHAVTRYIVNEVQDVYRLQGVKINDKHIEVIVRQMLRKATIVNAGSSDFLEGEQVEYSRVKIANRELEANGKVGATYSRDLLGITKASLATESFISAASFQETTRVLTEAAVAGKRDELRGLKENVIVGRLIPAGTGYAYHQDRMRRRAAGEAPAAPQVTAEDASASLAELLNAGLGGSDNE
T1 sequence (P0A8V2 whole entry): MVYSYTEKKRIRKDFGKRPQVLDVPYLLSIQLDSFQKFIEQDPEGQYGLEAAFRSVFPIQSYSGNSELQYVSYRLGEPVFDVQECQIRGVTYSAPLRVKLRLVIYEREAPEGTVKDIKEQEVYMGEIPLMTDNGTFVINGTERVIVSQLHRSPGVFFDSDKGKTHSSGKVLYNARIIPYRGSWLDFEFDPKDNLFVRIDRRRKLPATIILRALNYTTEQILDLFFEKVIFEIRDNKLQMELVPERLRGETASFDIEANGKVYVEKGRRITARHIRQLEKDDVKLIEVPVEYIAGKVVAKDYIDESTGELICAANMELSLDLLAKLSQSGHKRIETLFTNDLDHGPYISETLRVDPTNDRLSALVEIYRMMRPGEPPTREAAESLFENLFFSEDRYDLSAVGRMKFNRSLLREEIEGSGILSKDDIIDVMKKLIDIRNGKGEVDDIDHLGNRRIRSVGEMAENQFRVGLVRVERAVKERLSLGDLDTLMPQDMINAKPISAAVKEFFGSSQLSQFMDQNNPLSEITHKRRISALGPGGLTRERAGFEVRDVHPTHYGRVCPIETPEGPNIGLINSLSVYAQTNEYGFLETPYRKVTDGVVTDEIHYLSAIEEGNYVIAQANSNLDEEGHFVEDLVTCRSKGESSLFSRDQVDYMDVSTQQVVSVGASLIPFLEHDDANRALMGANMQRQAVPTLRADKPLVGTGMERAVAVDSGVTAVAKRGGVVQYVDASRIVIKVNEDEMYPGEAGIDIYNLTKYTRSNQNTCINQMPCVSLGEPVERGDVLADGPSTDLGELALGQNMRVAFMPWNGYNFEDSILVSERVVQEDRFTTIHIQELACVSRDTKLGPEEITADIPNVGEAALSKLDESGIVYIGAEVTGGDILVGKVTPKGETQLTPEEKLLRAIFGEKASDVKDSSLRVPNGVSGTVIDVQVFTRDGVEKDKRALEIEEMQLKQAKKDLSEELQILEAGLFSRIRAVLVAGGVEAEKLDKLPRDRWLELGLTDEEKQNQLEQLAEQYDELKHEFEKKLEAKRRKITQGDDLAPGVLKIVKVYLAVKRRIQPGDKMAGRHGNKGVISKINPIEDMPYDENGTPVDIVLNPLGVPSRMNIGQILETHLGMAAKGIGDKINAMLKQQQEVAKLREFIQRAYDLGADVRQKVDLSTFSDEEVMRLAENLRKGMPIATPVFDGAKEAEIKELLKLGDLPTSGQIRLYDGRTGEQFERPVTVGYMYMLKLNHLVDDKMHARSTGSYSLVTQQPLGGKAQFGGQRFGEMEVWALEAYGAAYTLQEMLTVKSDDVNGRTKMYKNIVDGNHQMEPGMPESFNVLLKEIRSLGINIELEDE
T1 sequence (P0A7Z4 whole entry): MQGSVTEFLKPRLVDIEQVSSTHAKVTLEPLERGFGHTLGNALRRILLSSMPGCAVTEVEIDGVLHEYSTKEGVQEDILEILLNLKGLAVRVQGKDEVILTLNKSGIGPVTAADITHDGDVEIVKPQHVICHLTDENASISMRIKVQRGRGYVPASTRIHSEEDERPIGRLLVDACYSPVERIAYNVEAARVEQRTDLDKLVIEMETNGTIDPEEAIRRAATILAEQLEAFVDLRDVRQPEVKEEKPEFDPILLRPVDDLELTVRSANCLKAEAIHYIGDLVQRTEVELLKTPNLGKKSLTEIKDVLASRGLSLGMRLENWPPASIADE

| SMILES | diameter of inhibition, S epidermidis (S epidermidis; 500 μg/ml) | diameter of inhibition, S aureus (S aureus; 500 μg/ml) | diameter of inhibition, K12 (E. coli K12; 500 μg/ml) | inhibition of the bond between σ^70 and the RNA polymerase (in words) [1] | also measured |
| --- | --- | --- | --- | --- | --- |
| O=C(/C=C/c1ccc(-c2ccc([N+](=O)[O-])cc2)o1)c1cc2ccccc2o1 [5,761,890] | negative | negative | negative | – | – |
| O=C(/C=C/c1ccc(-c2cccc([N+](=O)[O-])c2)o1)c1cc2ccccc2o1 [5,768,818] | negative | negative | negative | – | – |
| COc1ccc(-c2ccc(/C=C/C(=O)c3cc4ccccc4o3)o2)cc1 [compound 5,858,445] | 4.2 mm | 4.2 mm | negative | most active | – |
| Cc1ccc(C)n1-c1ccc(OCC(=O)O)cc1 [compound 5,988,031] | – | – | – | most active; also recorded: inhibits | inhibition of the growth of E. coli TG1 cells (in words) (E. coli TG1 cells): inhibits; inhibition of the bond between NusA and the RNA polymerase (in words) [2]: inhibits; inhibition of the assembly of the α, β and β′ subunits (in words) [3]: not; activity on S. aureus (in words) (S aureus; [5]): not active; activity on E. coli K12 (in words) (E. coli K12; [5]): not active; activity on M. Luteus (in words) (M. Luteus): not active; IC50 ([1]; FIG. 1, σ^70 adsorbed on plate, core enzyme, antibody 11D11-peroxidase, read-out: concentration giving 50% inhibition of the bond between σ^70 and the RNA polymerase (converted)): ~20.4 µM; inhibition of the bond between an antibody (11D11) and the RNA polymerase (in words) [4]: not |
| CN[C@H](CC(C)C)C(=O)N[C@H]1C(=O)N[C@@H](CC(N)=O)C(=O)N[C@H]2C(=O)N[C@H]3C(=O)N[C@H](C(=O)N[C@H](C(=O)O)c4cc(O)cc(O)c4-c4cc3ccc4O)[C@H](O)c3ccc(c(Cl)c3)Oc3cc2cc(c3O[C@@H]2O[C@H](CO)[C@@H](O)[C@H](O)[C@H]2O[C@H]2C[C@](C)(N)[C@H](O)[C@H](C)O2)Oc2ccc(cc2Cl)[C@H]1O [vancomycin, reference compound] | – | – | – | – | diameter of inhibition, S epidermidis (S epidermidis; 50 μg/ml): 5 mm; diameter of inhibition, S aureus (S aureus; 50 μg/ml): 5 mm; diameter of inhibition, K12 (E. coli K12; 50 μg/ml): negative |
